Laboratory results taken from BindingDB's records for doi:10.1016/s0960-894x(98)00494-6 (University of Michigan, 1999).

Assay: Compound was evaluated for inhibition of Protease

| Structure (SMILES) | IC50 [nM] |
| --- | --- |
| C[C@H](NC(=O)[C@H](Cc1ccccc1)NC(=O)OCc1ccccc1)C(=O)[C@H]1CO1 [[(S)-1-((S)-1-Methyl-2-(R)-oxiranyl-2-oxo-ethylcarbamoyl)-2-phenyl-ethyl]-carbamic acid benzyl ester] | 1000 |
| C[C@H](NC(=O)[C@H](Cc1ccccc1)NC(=O)OCc1ccccc1)C(=O)[C@@H]1CO1 [[(S)-1-((S)-1-Methyl-2-(S)-oxiranyl-2-oxo-ethylcarbamoyl)-2-phenyl-ethyl]-carbamic acid benzyl ester] | 80 |
| O=C(N[C@@H](Cc1ccccc1)C(=O)N[C@@H](CCc1ccccc1)C(=O)[C@H]1CO1)OCc1ccccc1 [{(S)-1-[(S)-1-((R)-Oxiranecarbonyl)-3-phenyl-propylcarbamoyl]-2-phenyl-ethyl}-carbamic acid benzyl ester] | > 1000 |
| O=C(N[C@@H](Cc1ccccc1)C(=O)N[C@@H](CCc1ccccc1)C(=O)[C@@H]1CO1)OCc1ccccc1 [{(S)-1-[(S)-1-((S)-Oxiranecarbonyl)-3-phenyl-propylcarbamoyl]-2-phenyl-ethyl}-carbamic acid benzyl ester] | 10 |
